What all share (assay type): in vivo
For data set [1], the system named is Beet Armyworm (Spodoptera exigua). Nature of the data set: Bioassay on Beet Armyworm (BAW), 128-well diet tray assay. The conditions noted are these: 50 μg/cm^2 on artificial diet, second instar larvae, five to seven days, 25° C. How it is done:
Bioassays on BAW were conducted using a 128-well diet tray assay. One to five second instar BAW larvae were placed in each well (3 mL) of the diet tray that had been previously filled with 1 mL of artificial diet to which 50 μg/cm^2 of the test molecule (dissolved in 50 μL of 90:10 acetone-water mixture) had been applied (to each of eight wells) and then allowed to dry. Trays were covered with a clear self-adhesive cover and held at 25° C., 14:10 light-dark for five to seven days. Percent mortality was recorded for the larvae in each well; activity in the eight wells was then averaged. The results are indicated in the table entitled “Table ABC: Biological Results” (See Table Section).
(§1) Bioassays on BAW and CL were conducted according to the procedures outlined in Example A: Bioassays on Beet Armyworm (“BAW”) and Cabbage Looper (“CL”) using the indicated concentrations.

For data set [2], the system named is Yellow Fever Mosquito (Aedes aegypti). The conditions noted are these: 4000 ppm master plate solution diluted, about 1 day-old larvae, scored on mortality after 3 days. How it is done:
Master plates containing 400 μg of a molecule dissolved in 100 μL of dimethyl sulfoxide (DMSO) (equivalent to a 4000 ppm solution) are used. A master plate of assembled molecules contains 15 μL per well. To this plate, 135 μL of a 90:10 water:acetone mixture is added to each well. A robot (Biomek® NXP Laboratory Automation Workstation) is programmed to dispense 15 μL aspirations from the master plate into an empty 96-well shallow plate (“daughter” plate). There are 6 reps (“daughter” plates) created per master. The created daughter plates are then immediately infested with YFM larvae.
The day before plates are to be treated, mosquito eggs are placed in Millipore water containing liver powder to begin hatching (4 g. into 400 mL). After the daughter plates are created using the robot, they are infested with 220 μL of the liver powder/larval mosquito mixture (about 1 day-old larvae). After plates are infested with mosquito larvae, a non-evaporative lid is used to cover the plate to reduce drying. Plates are held at room temperature for 3 days prior to grading. After 3 days, each well is observed and scored based on mortality. The results are indicated in the table entitled “Table ABC: Biological Results” (See Table Section).

Data set [3] relates to Cabbage Looper (Trichoplusia ni). Nature of the data set: Bioassay on Cabbage Looper (CL), 128-well diet tray assay. The conditions noted are these: 50 μg/cm^2 on artificial diet, second instar larvae, five to seven days, 25° C. How it is done:
Bioassays on CL were conducted using a 128-well diet tray assay. One to five second instar CL larvae were placed in each well (3 mL) of the diet tray that had been previously filled with 1 mL of artificial diet to which 50 μg/cm^2 of the test molecule (dissolved in 50 μL of 90:10 acetone-water mixture) had been applied (to each of eight wells) and then allowed to dry. Trays were covered with a clear self-adhesive cover and held at 25° C., 14:10 light-dark for five to seven days. Percent mortality was recorded for the larvae in each well; activity in the eight wells was then averaged. The results are indicated in the table entitled “Table ABC: Biological Results” (See Table Section).
as §1

Data set [4] concerns Green Peach Aphid (Myzus persicae). Nature of the data set: Bioassay on Green Peach Aphid (GPA), foliar spray on cabbage seedlings. As to conditions: 200 ppm spray on cabbage seedlings, graded after three days, Abbott corrected % control. How it is done: Cabbage seedlings grown in 3-inch pots, with 2-3 small (3-5 cm) true leaves, were used as test substrate. The seedlings were infested with 20-50 GPA (wingless adult and nymph stages) one day prior to chemical application. Four pots with individual seedlings were used for each treatment. Test molecules (2 mg) were dissolved in 2 mL of acetone/methanol (1:1) solvent, forming stock solutions of 1000 ppm test molecule. The stock solutions were diluted 5× with 0.025% Tween 20 in water to obtain the solution at 200 ppm test molecule. A hand-held aspirator-type sprayer was used for spraying a solution to both sides of […] leaves until runoff. Reference plants (solvent check) were sprayed with the diluent only containing 20% by volume of acetone/methanol (1:1) solvent. Treated plants were held in a holding room for three days at approximately 25° C. and ambient relative humidity (RH) prior to grading. Evaluation was conducted by counting the number of live aphids per plant under a microscope. Percent Control was measured by using Abbott's correction formula (W. S. Abbott, “A Method of Computing the Effectiveness of an Insecticide” J. Econ. Entomol. 18 (1925), pp. 265-267) as follows. Corrected % Control=100*(X−Y)/X • where • X=No. of live aphids on solvent check plants and • Y=No. of live aphids on treated plants

In the case of `Cc1cc(C(/C=C(\F)c2ccc(C(=O)NN(C)C(=O)NCC(F)(F)F)c(C(F)(F)F)c2)C(F)(F)F)cc(Cl)c1Cl` (stereo not shown) [F30, (Z)-2-(4-(3-(3,4-Dichloro-5-methylphenyl)-1,4,4,4-tetrafluorobut-1-en-1-yl)-2-(trifluoromethyl)benzoyl)-1-methyl-N-(2,2,2-trifluoroethyl)hydrazine-1-carboxamide], the “BAW % Control (or Mortality) rating” value in data set [1] is listed as “A (50-100)”. Besides, the “YFM % Control (or Mortality) rating” value in data set [2] is recorded as “D (No activity noticed in this bioassay)”. In addition, the “CL % Control (or Mortality) rating” value in data set [3] was “A (50-100)”.

Turning to `CN(NC(=O)c1ccc(/C(F)=C/C(c2ccc(Cl)c(Br)c2)C(F)(F)F)cc1C(F)(F)F)C(=O)NCC(F)(F)F` (stereo not shown) [PF8], the “BAW % Control (or Mortality) rating” value in data set [1] is recorded as “A (50-100)”. Also, the “YFM % Control (or Mortality) rating” value in data set [2] was “A (80-100)”. Moreover, in data set [3], the “CL % Control (or Mortality) rating” value is “A (50-100)”. Further, the “GPA % Control (or Mortality) rating” value in data set [4] was “B (More than 0-Less than 80)”.

These data come from patent US9930892B2, “Molecules having pesticidal utility, and intermediates, compositions, and processes, related thereto” (Dow AgroSciences LLC, priority 2016, dated 2018).
